From publication PMC3903478, “Expression and Properties of the Highly Alkalophilic Phenylalanine Ammonia-Lyase of Thermophilic Rubrobacter xylanophilus” (PLoS ONE, 2014)

Target: T1, RxPAL (phenylalanine ammonia-lyase of Rubrobacter xylanophilus) (Rubrobacter xylanophilus, UniProt Q1AV79)
T1 construct: gene Rxyl_1739; full length (540 AA), N-terminal His6-tag kept, codon-optimised synthetic gene in pBAD-HisB, expressed in E. coli TOP10, Ni-NTA purified; MIO prosthetic group formed from ASG
Experiment: UV spectrophotometry at […] nm, cinnamic acid formation
Format: biochemical
Details: 20 mM L-phenylalanine, 0.1 M buffers pH 4.0-12, ionic strength 250 mM

T1 sequence (Q1AV79 entry or part of it): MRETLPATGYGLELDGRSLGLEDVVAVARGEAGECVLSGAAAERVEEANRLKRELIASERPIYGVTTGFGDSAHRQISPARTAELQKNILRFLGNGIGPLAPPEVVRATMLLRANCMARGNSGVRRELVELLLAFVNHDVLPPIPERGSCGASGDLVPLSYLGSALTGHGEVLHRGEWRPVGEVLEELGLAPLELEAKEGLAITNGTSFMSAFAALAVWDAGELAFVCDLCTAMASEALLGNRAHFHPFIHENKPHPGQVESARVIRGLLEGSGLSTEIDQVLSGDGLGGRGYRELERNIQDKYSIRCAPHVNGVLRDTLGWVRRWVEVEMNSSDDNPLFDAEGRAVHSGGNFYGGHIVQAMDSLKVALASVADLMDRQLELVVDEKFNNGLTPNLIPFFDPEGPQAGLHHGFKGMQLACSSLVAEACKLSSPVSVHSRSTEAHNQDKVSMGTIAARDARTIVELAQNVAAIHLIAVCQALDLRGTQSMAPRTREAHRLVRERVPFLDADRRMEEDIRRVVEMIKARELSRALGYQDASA

In the case of `N[C@@H](Cc1ccccc1)C(=O)O` [L-phenylalanine], the “UV spectrophotometry at 290 nm, cinnamic acid formation” value is reported as “Progress of ammonia elimination from L-phenylalanine was monitored by detection of (E)-cinnamic acid production”.
